Laboratory results from patent publication US20130316963A1, “INNATE DEFENCE REGULATORY PEPTIDE COMPOSITIONS FOR TREATMENT OF ARTHRITIS” (UNIVERSITY OF MANITOBA, priority 2010, published 2013).

Experiments:
Type in all cases: cell-based
human FLS cells [1] = experiment: MMP-3 production in tissue culture supernatants of cytokine-stimulated human FLS cells (ELISA); conditions: 24 hr
Method: Synovial tissues were obtained from patients with OA in accordance to a protocol by the Institutional Review Board at the University of Manitoba. FLS cells were isolated from the synovial tissues following the procedure taught by Kammouni et al. (2007, Regulation of apoptosis in fibroblast-like synoviocytes by the hypoxia-induced Bcl-2 family member Bcl-2/adenovirus E1B 19-kd protein-interacting protein 3. Arthritis Rheum. 56:2854-2863). Briefly, the tissues were digested with 1 mg/ml collagenase and 0.05 mg/ml hyaluronidase (both obtained from Sigma-Aldrich Co., Oakville, ON, Canada) in Hanks' balanced salt solution (Gibco; Invitrogen Canada Inc., Burlington, ON, Canada) for 1-2 hours at 37° C. Cells were washed and cultured in DMEM media (Gibco) supplemented with sodium pyruvate and non-essential amino acids (referred to as complete DMEM media henceforth), containing 10% (v/v) fetal bovine serum (FBS) in a humidified incubator at 37° C. and 10% CO2. Isolated human FLS cells (ex-vivo) were seeded at 2×10^4 cells/ml, either 0.5 ml per well in 48-well tissue culture plate, or 3 ml per well in 6-well tissue culture plate as required and cultured in complete DMEM media containing 10% (v/v) FBS overnight. The following day the culture media was changed to complete DMEM containing 1% (v/v) FBS before the addition of the various stimulants. The FLS cells were not used beyond passage five. […] Cellular cytotoxicity was evaluated by monitoring the release of lactate dehydrogenase (LDH) employing a colorimetric detection kit (Roche Diagnostics, Laval, QC, Canada).
Tissue culture supernatants were harvested after stimulation of human FLS cells with various cytokines (as indicated) with and without IDR peptides after 24 hr. […] Production of MMP-3 in the tissue culture supernatants was monitored using Quantikine® human MMP-3 (total) ELISA kit (Quantikine is a registered trademark of R&D Systems, Inc. Minneapolis, Minn., USA) as per the manufacturer's instructions. Production of pro-inflammatory cytokines IL-1β, IL-6, IL-10, TNF, IL-12p70 and chemokines IL-8, RANTES, MIG, MCP-1, IP-10 in the tissue culture supernatants was determined using preconfigured multiplex BD Cytometric Bead Array (CBA) human inflammation and chemokine kits respectively, employing the FACS Calibur flow cytometer (BD Biosciences, Mississauga, ON, Canada) as per the manufacture's instructions. The concentration of the cytokines or chemokines in the tissue culture supernatants was evaluated by establishing a standard curve with serial dilutions of the recombinant human cytokines or chemokines as required. […]

human FLS cells [2] = experiment: Cellular cytotoxicity by release of lactate dehydrogenase (LDH); conditions: presence and absence of cytokine stimulation, 24 hr; IDR-1002 100 μg/ml, IDR-1 200 μg/ml; data not shown
Method: Synovial tissues were obtained from patients with OA in accordance to a protocol by the Institutional Review Board at the University of Manitoba. FLS cells were isolated from the synovial tissues following the procedure taught by Kammouni et al. (2007, Regulation of apoptosis in fibroblast-like synoviocytes by the hypoxia-induced Bcl-2 family member Bcl-2/adenovirus E1B 19-kd protein-interacting protein 3. Arthritis Rheum. 56:2854-2863). […] Cellular cytotoxicity was evaluated by monitoring the release of lactate dehydrogenase (LDH) employing a colorimetric detection kit (Roche Diagnostics, Laval, QC, Canada).
Inflammatory cytokines TNF-α and IL-1β stimulate cells types such as FLS, chondrocytes and macrophages resulting in the production of MMP-3 in arthritic joints. […] In this study we evaluated the impact of IDR peptides on TNF-α and IL-1β-induced MMP-3 production. […] The peptides were not cytotoxic to the FLS cells in the presence and absence of cytokine stimulation, as determined by monitoring the tissue culture supernatants for the release of LDH after 24 hr of stimulation (data not shown). Tissue culture supernatants were monitored after 24 hr of stimulation for MMP-3 production by ELISA. […]

human FLS cells [3] = experiment: IL-6 production in human FLS cells stimulated with TGF-β (ELISA); conditions: FIG. 4
Method: Tissue culture supernatants were harvested from human FLS cells after stimulation for 24 hr with TGF-β with and without IDR-1002. The supernatants were centrifuged at 1500×g for 7 min to obtain cell-free samples. The samples were aliquoted and stored at −20° C. until further use. Production of IL-6 in the tissue culture supernatants was monitored using Quantikine® human […] ELISA following the manufacturer's instructions. […] FLS cells stimulated with TGF-β produced more than 500 pg/ml of IL-6. […] Results shown are an average of at least three independent biological experiments performed with cells isolated from synovial tissues obtained from independent donors±standard error (*p<0.05, **p<0.01).

VQRWLIVWRIRK (IDR-1002 peptide) was tested, and the “suppression of IL-1β-induced MMP-3” value (human FLS cells [1]; IDR-1002 100 μg/ml for 45 min prior to IL-1β 10 ng/ml, FIG. 2A) was 80%, the “suppression of IL-1β-induced MMP-3 production” value (human FLS cells [1]; IL-1β 10 ng/ml, peptide added at time of stimulation, IDR-1002 100 μg/ml, IDR-1 200 μg/ml, FIG. 1A) was 70±8% and the “suppression of MMP-3 production induced by cytomix (TNF-α+IL-1β)” value (human FLS cells [1]; TNF-α+IL-1β 10 ng/ml each, IDR-1002 100 μg/ml, FIG. 1C) was 56±10%. The “MMP-3 production induced by peptide by itself” value (human FLS cells [1]; no cytokine, vs un-stimulated control FLS cells, IDR-1002 100 μg/ml) was “did not induce MMP-3 production above the background amount”, the “cytotoxicity to FLS cells (release of LDH)” value (human FLS cells [2]) was “not cytotoxic” and the “reduction in TGF-β-induced IL-6 production” value (human FLS cells [3]; TGF-β with IDR-1002, 24 hr) was “more than 50%”. For the same sequence, the “IL-6 production by IDR-1002 alone” value (human FLS cells [3]; no TGF-β, 24 hr) was “did not stimulate production of IL-6”.
